The source of these data is ChEMBL document CHEMBL4390694, “Benzofuran-isatin hybrids tethered via different length alkyl linkers and their in vitro anti-mycobacterial activities” (Bioorg Med Chem, 2019).

≈ marks a conversion by molar mass, not a printed value.

The subject of data set [1] is Mycobacterium tuberculosis. Kind of data set: Antimycobacterial activity against drug-susceptible Mycobacterium tuberculosis H37Rv assessed as complete inhibition of bacterial growth incubated for 7 days by rapid direct susceptibility test. It is filed as functional. The settings on record: 168 h.
The nature of data set [2]: Selectivity index, ratio of CC50 for cytotoxicity against African green monkey Vero cells to MIC for antimycobacterial activity against drug-susceptible Mycobacterium tuberculosis H37Rv. The class given is toxicity, cell-based. The following applies: read-out: Selectivity Index.
Data set [3] is described as follows: Cytotoxicity against African green monkey Vero cells assessed as decrease in cell viability after 72 hrs by MTT assay. The following applies: chlorocebus sabaeus. It is filed as cell-based. In general terms: Formazan colour is commonly taken as a measure of viable cells.
A short description of data set [4]: AUC (0 to infinity) in ICR mouse at 25 mg/kg, po administered as single dose and measured up to 24 hrs post dose. It is filed as ADME, organism-based. Details: dose 25 mg/kg, time infinity, route oral. The following applies: in vivo.
A short description of data set [5]: Tmax in ICR mouse at 25 mg/kg, po administered as single dose and measured up to 24 hrs post dose. The settings on record: in vivo. It is filed as ADME, organism-based.
A short description of data set [6]: Metabolic stability in mouse liver microsomes assessed as half life. The class given is ADME, Microsome.
The nature of data set [7]: Elimination half life in ICR mouse at 25 mg/kg, po administered as single dose and measured up to 24 hrs post dose. The class given is ADME, organism-based. The settings on record: in vivo, read-out: beta t1/2 (converted).
Data set [8] in a line: Cmax in ICR mouse at 25 mg/kg, po administered as single dose and measured up to 24 hrs post dose. The class given is ADME, organism-based. Details: dose 25 mg/kg, route oral. The following applies: in vivo.

The MIC is the smallest concentration in the dilution series that meets the test's criterion for growth inhibition. The term CC50 denotes the concentration that lowers cell viability or growth by half. For `CCOC(=O)c1c(-c2ccc(F)cc2)oc2ccc(OCCCN3C(=O)C(=O)c4cc(F)ccc43)cc12`, the MIC in data set [1] came out at 1 µg/mL (≈ 1.98 µM). Also, the selectivity ratio in data set [2] is 512. Further, the CC50 at 72 h in data set [3] is 512 µM.
For `CCOC(=O)c1c(-c2ccc(OC)cc2)oc2ccc(OCCCCN3C(=O)C(=O)c4cc(OC)ccc43)cc12`, in that order: 2 µg/mL (≈ 3.68 µM), 32 and 64 µM.
On to `CCOC(=O)c1c(-c2ccccc2)oc2ccc(OCCCN3C(=O)C(=O)c4cc(OC)ccc43)cc12`, for which, in data set [1], the MIC turned out to be 0.25 µg/mL (≈ 0.5 µM). Further, the selectivity ratio in data set [2] came out at 1024. Moreover, the half-maximal cytotoxic concentration (CC50) at 72 h in data set [3] came out at 256 µM.
Turning to `CO[C@H]1/C=C/O[C@@]2(C)Oc3c(C)c(O)c4c(O)c(c(/C=N/N5CCN(C)CC5)c(O)c4c3C2=O)NC(=O)/C(C)=C\C=C\[C@H](C)[C@H](O)[C@@H](C)[C@@H](O)[C@@H](C)[C@H](OC(C)=O)[C@@H]1C` [RIFAMPIN], in data set [1], the MIC was 0.5 µg/mL (≈ 0.608 µM).
By AUC(0-inf) is commonly meant the area under the concentration-time curve extrapolated to infinity. One may read the Tmax as the time from dosing to the highest level. In general, Cmax refers to the maximum level reached in the sampled fluid or tissue. Turning to `CNC(=O)c1c(-c2ccc(O)cc2)oc2ccc(O)c(CN3CCCCC3)c12`, the minimal inhibitory concentration (MIC) in data set [1] is less than 0.06 µg/mL. In data set [4], this compound yielded an AUC(0-inf) of 31800 ng·h/mL. Besides, the Tmax in data set [5] is 3.12 h. Besides, the half-life in data set [6] is more than 1 h; in data set [7], 8.59 h. Moreover, the selectivity ratio in data set [2] was more than 16400. In addition, in data set [8], the Cmax is 6830 ng/mL. Further, the CC50 at 72 h in data set [3] is more than 1020 µM.
Take `CCOC(=O)c1c(-c2ccc(OC)cc2)oc2ccc(OCCCCCCN3C(=O)C(=O)c4cc(F)ccc43)cc12`: the MIC in data set [1] was 0.125 µg/mL (≈ 0.223 µM). In data set [4], this compound gave an AUC(0-inf) of 3680 ng·h/mL. Moreover, the Tmax in data set [5] was 1.76 h. The half-life in data set [6] was 0.527 h; in data set [7], 2.48 h. Moreover, in data set [2], the selectivity ratio came out at 1024. Also, the peak level in data set [8] (Cmax) was 1220 ng/mL. The CC50 at 72 h in data set [3] was determined as 128 µM.
For `CCOC(=O)c1c(-c2ccc(OC)cc2)oc2ccc(OCCCCCN3C(=O)C(=O)c4cc(F)ccc43)cc12`, the MIC in data set [1] came out at 0.25 µg/mL (≈ 0.458 µM). Also, in data set [2], the selectivity ratio amounted to 512. For the same compound, the CC50 at 72 h in data set [3] amounted to 128 µM.
With `CCOC(=O)c1c(-c2ccc(OC)cc2)oc2ccc(OCCCCN3C(=O)C(=O)c4ccccc43)cc12`, the MIC in data set [1] came to 0.5 µg/mL (≈ 0.974 µM). In data set [2], the selectivity ratio is more than 2048. Moreover, the CC50 at 72 h in data set [3] was more than 1020 µM.
For `CCOC(=O)c1c(-c2ccc(F)cc2)oc2ccc(OCCCN3C(=O)C(=O)c4cc(OC)ccc43)cc12`, in that order: 1 µg/mL (≈ 1.93 µM), 128 and 128 µM.
The like results for `CCOC(=O)c1c(-c2ccc(OC)cc2)oc2ccc(OCCCN3C(=O)C(=O)c4cc(F)ccc43)cc12` were, in that order, 0.5 µg/mL (≈ 0.966 µM), 512 and 256 µM.
Take `NNC(=O)c1ccncc1` [ISONIAZID]: in data set [1], the MIC stood at 0.06 µg/mL (≈ 0.438 µM).
As for `CCOC(=O)c1c(-c2ccc(F)cc2)oc2ccc(OCCCCCCN3C(=O)C(=O)c4cc(F)ccc43)cc12`, the MIC in data set [1] turned out to be 0.25 µg/mL (≈ 0.457 µM). Also, in data set [2], the selectivity ratio amounted to 2048. Besides, the CC50 at 72 h in data set [3] turned out to be 512 µM.
For `CCOC(=O)c1c(-c2ccc(F)cc2)oc2ccc(OCCCCCN3C(=O)C(=O)c4cc(OC)ccc43)cc12`, in that order: 0.5 µg/mL (≈ 0.916 µM), 256 and 128 µM.
For `CCOC(=O)c1c(-c2ccc(OC)cc2)oc2ccc(OCCCCCCN3C(=O)C(=O)c4ccccc43)cc12`, in that order: 0.25 µg/mL (≈ 0.462 µM), 1024 and 256 µM.
Take `CCOC(=O)c1c(-c2ccc(F)cc2)oc2ccc(OCCCN3C(=O)C(=O)c4ccccc43)cc12`: the MIC in data set [1] was 2 µg/mL (≈ 4.1 µM). Moreover, the selectivity ratio in data set [2] turned out to be 128. In addition, in data set [3], the CC50 at 72 h stood at 256 µM.
The like results for `CCOC(=O)c1c(-c2ccc(OC)cc2)oc2ccc(OCCCN3C(=O)C(=O)c4ccccc43)cc12` were, in that order, 1 µg/mL (≈ 2 µM), 64 and 64 µM.
